Reference: article PMC5218480 (PLoS ONE, 2017)

Test system: MV-4-11 cells
Test: Gene expression microarray analysis (Affymetrix PrimeView) and GSEA
Type: cell-based, human
Design: RFU PODN (11730768_x_at) / Fold change /veh PODN (11730768_x_at) / RFU LINC00158 (11744669_a_at) / Fold change /veh LINC00158 (11744669_a_at) / RFU DUSP10 (11751237_a_at) / Fold change /veh DUSP10 (11751237_a_at) / RFU ID3 (11757404_x_at) / Fold change /veh ID3 (11757404_x_at) / RFU PLEKHG5 (11737974_s_at) / Fold change /veh PLEKHG5 (11737974_s_at) / RFU LRRC4B (11730491_at) / Fold change /veh LRRC4B (11730491_at) / RFU GIMAP4 (11747438_a_at) / Fold change /veh GIMAP4 (11747438_a_at) / RFU KRT8 (11758183_x_at) / Fold change /veh KRT8 (11758183_x_at) / RFU CNN1 (11734310_a_at) / Fold change /veh CNN1 (11734310_a_at) / RFU VPS37D (11726825_at) / Fold change /veh VPS37D (11726825_at) / RFU C10orf10 (11716522_x_at) / Fold change /veh C10orf10 (11716522_x_at) / RFU KIR2DL2 /// KIR2DL4 /// KIR2DL5A /// KIR2DL5B /// KIR2DS1 /// KIR2DS2 /// KIR2DS3 /// KIR2DS4 /// KIR3DL3 /// KIR3DL3 /// KIR3DS1 (11738374_at) / Fold change /veh KIR2DL2 /// KIR2DL4 /// KIR2DL5A /// KIR2DL5B /// KIR2DS1 /// KIR2DS2 /// KIR2DS3 /// KIR2DS4 /// KIR3DL3 /// KIR3DL3 /// KIR3DS1 (11738374_at) / RFU C1QL1 (11718748_at) / Fold change /veh C1QL1 (11718748_at) / RFU TMPRSS4 (11747572_a_at) / Fold change /veh TMPRSS4 (11747572_a_at) / RFU HAMP (11756126_x_at) / Fold change /veh HAMP (11756126_x_at) / RFU RNFT2 (11725882_a_at) / Fold change /veh RNFT2 (11725882_a_at) / RFU NR4A2 (11747474_a_at) / Fold change /veh NR4A2 (11747474_a_at) / RFU ABCC12 (11746883_a_at) / Fold change /veh ABCC12 (11746883_a_at) / RFU TMEM136 (11760407_x_at) / Fold change /veh TMEM136 (11760407_x_at) / RFU CLDN22 /// WWC2 (11732394_at) / Fold change /veh CLDN22 /// WWC2 (11732394_at) / RFU HLA-DPB1 (11760878_x_at) / Fold change /veh HLA-DPB1 (11760878_x_at) / RFU SPINT1 (11716480_a_at) / Fold change /veh SPINT1 (11716480_a_at) / RFU GAP43 (11754022_s_at) / Fold change /veh GAP43 (11754022_s_at) / RFU A4GNT (11735810_at) / Fold change /veh A4GNT (11735810_at) / RFU PRB3 (11715151_x_at) / Fold change /veh PRB3 (11715151_x_at) / RFU TUBB4B (11761932_at) / Fold change /veh TUBB4B (11761932_at) / RFU CAPN14 (11732068_a_at) / Fold change /veh CAPN14 (11732068_a_at) / RFU TMCC2 (11721928_a_at) / Fold change /veh TMCC2 (11721928_a_at) / RFU IRGQ (11745062_a_at) / Fold change /veh IRGQ (11745062_a_at) / RFU FAM174B (11720279_a_at) / Fold change /veh FAM174B (11720279_a_at) / RFU TMPRSS4 (11748680_a_at) / Fold change /veh TMPRSS4 (11748680_a_at) / RFU FAM212B (11763350_a_at) / Fold change /veh FAM212B (11763350_a_at) / RFU PLEKHG5 (11743358_a_at) / Fold change /veh PLEKHG5 (11743358_a_at) / RFU ZSCAN30 (11745921_a_at) / Fold change /veh ZSCAN30 (11745921_a_at) / RFU CMKLR1 (11741424_a_at) / Fold change /veh CMKLR1 (11741424_a_at) / RFU LOC101060620 /// MAPK8IP1 (11723275_at) / Fold change /veh LOC101060620 /// MAPK8IP1 (11723275_at) / RFU SPTSSB (11747773_x_at) / Fold change /veh SPTSSB (11747773_x_at) / RFU PRSS12 (11739890_at) / Fold change /veh PRSS12 (11739890_at) / RFU BIN1 (11741810_x_at) / Fold change /veh BIN1 (11741810_x_at) / RFU WNT11 (11732464_a_at) / Fold change /veh WNT11 (11732464_a_at) / RFU C10orf10 (11716521_a_at) / Fold change /veh C10orf10 (11716521_a_at) / RFU C5orf56 (11738089_at) / Fold change /veh C5orf56 (11738089_at) / RFU CYB561 (11721691_x_at) / Fold change /veh CYB561 (11721691_x_at) / RFU ANKRD19P (11752326_a_at) / Fold change /veh ANKRD19P (11752326_a_at) / RFU OR2T12 /// OR2T33 /// OR2T8 (11738714_s_at) / Fold change /veh OR2T12 /// OR2T33 /// OR2T8 (11738714_s_at) / RFU VCAN (11748164_a_at) / Fold change /veh VCAN (11748164_a_at) / RFU JSRP1 (11732532_at) / Fold change /veh JSRP1 (11732532_at) / RFU KRTAP10-11 (11738290_x_at) / Fold change /veh KRTAP10-11 (11738290_x_at) / RFU MYO3A (11730013_a_at) / Fold change /veh MYO3A (11730013_a_at) / RFU EBF3 (11725865_a_at) / Fold change /veh EBF3 (11725865_a_at) / RFU CAMK2N1 (11719241_x_at) / Fold change /veh CAMK2N1 (11719241_x_at) / RFU C5orf56 (11738088_a_at) / Fold change /veh C5orf56 (11738088_a_at) / RFU OLFML3 (11715873_a_at) / Fold change /veh OLFML3 (11715873_a_at) / RFU LOC100653217 /// NTM (11731650_a_at) / Fold change /veh LOC100653217 /// NTM (11731650_a_at) / RFU MAPK11 (11762145_a_at) / Fold change /veh MAPK11 (11762145_a_at) / RFU FIZ1 (11724087_x_at) / Fold change /veh FIZ1 (11724087_x_at) / RFU OASL (11726364_x_at) / Fold change /veh OASL (11726364_x_at) / RFU SOX15 (11748057_x_at) / Fold change /veh SOX15 (11748057_x_at) / RFU CD79A (11719716_a_at) / Fold change /veh CD79A (11719716_a_at) / RFU HIST1H1D (11736915_at) / Fold change /veh HIST1H1D (11736915_at) / RFU CASKIN2 (11723855_a_at) / Fold change /veh CASKIN2 (11723855_a_at) / RFU LOC730098 (11760151_x_at) / Fold change /veh LOC730098 (11760151_x_at) / RFU OR4N2 (11742367_at) / Fold change /veh OR4N2 (11742367_at) / RFU PRRT2 (11749266_a_at) / Fold change /veh PRRT2 (11749266_a_at) / RFU SNX32 (11753110_a_at) / Fold change /veh SNX32 (11753110_a_at) / RFU CDHR5 (11726645_a_at) / Fold change /veh CDHR5 (11726645_a_at) / RFU RCAN1 (11760418_a_at) / Fold change /veh RCAN1 (11760418_a_at) / RFU FAM167A (11723789_a_at) / Fold change /veh FAM167A (11723789_a_at) / RFU FAM26E (11764081_at) / Fold change /veh FAM26E (11764081_at) / RFU ISYNA1 (11749810_s_at) / Fold change /veh ISYNA1 (11749810_s_at) / RFU ACY1 (11761880_at) / Fold change /veh ACY1 (11761880_at) / RFU 11764098_at / Fold change /veh 11764098_at / RFU SAMD14 (11745864_x_at) / Fold change /veh SAMD14 (11745864_x_at) / RFU NPB (11741838_a_at) / Fold change /veh NPB (11741838_a_at) / RFU TMPRSS6 (11731388_a_at) / Fold change /veh TMPRSS6 (11731388_a_at) / RFU KRTAP10-2 (11738614_at) / Fold change /veh KRTAP10-2 (11738614_at) / RFU ARHGAP8 /// PRR5-ARHGAP8 (11727945_x_at) / Fold change /veh ARHGAP8 /// PRR5-ARHGAP8 (11727945_x_at) / RFU KRTAP5-7 /// NADSYN1 (11734609_at) / Fold change /veh KRTAP5-7 /// NADSYN1 (11734609_at) / RFU RASL12 (11751679_a_at) / Fold change /veh RASL12 (11751679_a_at) / RFU CDKN2B (11736163_a_at) / Fold change /veh CDKN2B (11736163_a_at) / RFU PRF1 (11729649_at) / Fold change /veh PRF1 (11729649_at) / RFU, ZNF638 /// ZNF638-IT1 / Fold change vs veh, ZNF638 /// ZNF638-IT1 / RFU, PANK3 / Fold change vs veh, PANK3 / RFU, SH3YL1 / Fold change vs veh, SH3YL1 / RFU, ZEB2 / Fold change vs veh, ZEB2 / RFU, NRIP1 / Fold change vs veh, NRIP1 / RFU, PTTG1IP / Fold change vs veh, PTTG1IP / RFU, CAPN2 / Fold change vs veh, CAPN2 / RFU, MED14 / Fold change vs veh, MED14 / RFU, SNORA58 / Fold change vs veh, SNORA58 / RFU, C1orf63 / Fold change vs veh, C1orf63 / RFU, LRRFIP1 / Fold change vs veh, LRRFIP1 / RFU, NDUFAF7 / Fold change vs veh, NDUFAF7 / RFU, SLC12A2 / Fold change vs veh, SLC12A2 / RFU, IBTK / Fold change vs veh, IBTK / RFU, ESF1 / Fold change vs veh, ESF1 / Fold change vs veh, TMEM50B / RFU, TAOK1 / Fold change vs veh, TAOK1 / RFU, ACBD3 / Fold change vs veh, ACBD3 / RFU, TMA16 / Fold change vs veh, TMA16 / RFU, RWDD3 / Fold change vs veh, RWDD3 / RFU, BCAT1 / Fold change vs veh, BCAT1 / RFU, EDEM3 / Fold change vs veh, EDEM3 / RFU, TMEM33 / Fold change vs veh, TMEM33 / RFU, WDR75 / Fold change vs veh, WDR75 / RFU, AHCTF1 / Fold change vs veh, AHCTF1 / RFU, TFRC / Fold change vs veh, TFRC / RFU, ZDHHC17 / Fold change vs veh, ZDHHC17 / RFU, NOM1 / Fold change vs veh, NOM1 / RFU, ARL8B / Fold change vs veh, ARL8B / RFU, ZBTB11 / Fold change vs veh, ZBTB11 / RFU, TAMM41 / Fold change vs veh, TAMM41 / RFU, KIAA1704 /// LOC100996395 / Fold change vs veh, KIAA1704 /// LOC100996395 / RFU, ING1 / Fold change vs veh, ING1 / RFU, TRMT61B / Fold change vs veh, TRMT61B / RFU, FUBP3 / Fold change vs veh, FUBP3 / RFU, TP53 / Fold change vs veh, TP53 / RFU, TNKS2 / Fold change vs veh, TNKS2 / RFU, ZFP14 / Fold change vs veh, ZFP14 / RFU, ACTR2 / Fold change vs veh, ACTR2 / RFU, PPP3R1 / Fold change vs veh, PPP3R1 / RFU, PIK3R1 / Fold change vs veh, PIK3R1 / RFU, HNRNPA1 / Fold change vs veh, HNRNPA1 / RFU, RNF170 / Fold change vs veh, RNF170 / RFU, ZNF28 / Fold change vs veh, ZNF28 / RFU, RNGTT / Fold change vs veh, RNGTT / RFU, OGT / Fold change vs veh, OGT / RFU, BRD1 / Fold change vs veh, BRD1 / RFU, MARS / Fold change vs veh, MARS / RFU, ZNF655 / Fold change vs veh, ZNF655 / RFU, FAHD1 / Fold change vs veh, FAHD1 / RFU, BDP1 / Fold change vs veh, BDP1 / RFU, LRRCC1 / Fold change vs veh, LRRCC1 / RFU, ARID1A / Fold change vs veh, ARID1A / RFU, ZNF146 / Fold change vs veh, ZNF146 / RFU, ZNF330 / Fold change vs veh, ZNF330 / RFU, GPN3 / Fold change vs veh, GPN3 / RFU, C9orf123 / Fold change vs veh, C9orf123 / RFU, N4BP2L2 / Fold change vs veh, N4BP2L2 / RFU, ARFIP1 / Fold change vs veh, ARFIP1 / RFU, FAM179B / Fold change vs veh, FAM179B / RFU, BCL10 / Fold change vs veh, BCL10 / RFU, UHRF1BP1L / Fold change vs veh, UHRF1BP1L / RFU, BET1 / Fold change vs veh, BET1 / RFU, CNOT2 / Fold change vs veh, CNOT2 / RFU, ZNF268 / Fold change vs veh, ZNF268 / Fold change vs veh, ZNF507 / RFU, DGCR2 / Fold change vs veh, DGCR2 / RFU, WDSUB1 / Fold change vs veh, WDSUB1 / Fold change vs veh, HSP90B1 /// MIR3652 / RFU, ADSS / Fold change vs veh, ADSS / RFU, GK / Fold change vs veh, GK / RFU, ZNF148 / Fold change vs veh, ZNF148 / RFU, TAF9 / Fold change vs veh, TAF9 / RFU, SLC1A5 / Fold change vs veh, SLC1A5 / RFU, SLMO2 / Fold change vs veh, SLMO2 / RFU, ABCC4 / Fold change vs veh, ABCC4 / RFU, LOC101060439 /// RAP1B / Fold change vs veh, LOC101060439 /// RAP1B / RFU, RFX7 / Fold change vs veh, RFX7 / RFU, GTPBP10 / Fold change vs veh, GTPBP10 / RFU, CNEP1R1 / Fold change vs veh, CNEP1R1 / RFU, BIVM-ERCC5 /// ERCC5 / Fold change vs veh, BIVM-ERCC5 /// ERCC5 / RFU, ILF3 / Fold change vs veh, ILF3 / RFU 11762660_at / Fold change /veh 11762660_at / RFU VCAN (11757783_s_at) / Fold change /veh VCAN (11757783_s_at) / RFU DDX43 (11728927_at) / Fold change /veh DDX43 (11728927_at) / RFU KRT8 (11758188_x_at) / Fold change /veh KRT8 (11758188_x_at) / RFU NKD1 (11759106_at) / Fold change /veh NKD1 (11759106_at) / RFU SRD5A1 (11742802_a_at) / Fold change /veh SRD5A1 (11742802_a_at) / RFU TPSAB1 /// TPSB2 (11721975_s_at) / Fold change /veh TPSAB1 /// TPSB2 (11721975_s_at) / RFU GSTM3 (11746129_a_at) / Fold change /veh GSTM3 (11746129_a_at) / RFU IL23R (11737362_x_at) / Fold change /veh IL23R (11737362_x_at) / RFU TMEM51 (11727254_a_at) / Fold change /veh TMEM51 (11727254_a_at) / RFU PIWIL2 (11732686_x_at) / Fold change /veh PIWIL2 (11732686_x_at) / RFU ORM1 (11744905_x_at) / Fold change /veh ORM1 (11744905_x_at) / RFU CCDC152 (11743942_at) / Fold change /veh CCDC152 (11743942_at) / RFU ECM1 (11717891_a_at) / Fold change /veh ECM1 (11717891_a_at) / RFU IL23R (11748794_a_at) / Fold change /veh IL23R (11748794_a_at) / RFU TNFAIP8L3 (11732012_x_at) / Fold change /veh TNFAIP8L3 (11732012_x_at) / RFU MBOAT4 (11741988_at) / Fold change /veh MBOAT4 (11741988_at) / RFU 11764193_at / Fold change /veh 11764193_at / RFU TMEM53 (11763286_at) / Fold change /veh TMEM53 (11763286_at) / RFU MAGEB2 (11727129_at) / Fold change /veh MAGEB2 (11727129_at) / RFU TMEM200A (11744735_a_at) / Fold change /veh TMEM200A (11744735_a_at) / RFU CCDC152 (11751479_a_at) / Fold change /veh CCDC152 (11751479_a_at) / RFU FAM211A (11726209_a_at) / Fold change /veh FAM211A (11726209_a_at) / RFU RGS16 (11746705_a_at) / Fold change /veh RGS16 (11746705_a_at) / RFU VCAN (11755009_s_at) / Fold change /veh VCAN (11755009_s_at) / RFU RHOB (11743442_s_at) / Fold change /veh RHOB (11743442_s_at) / RFU RGS16 (11720943_a_at) / Fold change /veh RGS16 (11720943_a_at) / RFU RGS16 (11720944_at) / Fold change /veh RGS16 (11720944_at) / RFU, VPS4B / Fold change vs veh, VPS4B / RFU, CREB1 / Fold change vs veh, CREB1 / RFU, DNAJC13 / Fold change vs veh, DNAJC13 / RFU, GNAQ / Fold change vs veh, GNAQ / RFU, CDK5R1 / Fold change vs veh, CDK5R1 / RFU, ZRANB3 / Fold change vs veh, ZRANB3 / RFU, CUL4A / Fold change vs veh, CUL4A / RFU, CCNY / Fold change vs veh, CCNY / RFU, UFL1 / Fold change vs veh, UFL1 / RFU, COG3 / Fold change vs veh, COG3 / RFU, DIAPH2 / Fold change vs veh, DIAPH2 / RFU, SKA2 / Fold change vs veh, SKA2 / RFU, AFF3 / Fold change vs veh, AFF3 / RFU, LMF1 / Fold change vs veh, LMF1 / RFU, IPO11 / Fold change vs veh, IPO11 / RFU, DFFB / Fold change vs veh, DFFB / RFU, FOXP1 / Fold change vs veh, FOXP1 / RFU, CARD8 / Fold change vs veh, CARD8 / RFU, STRN3 / Fold change vs veh, STRN3 / RFU, ADK / Fold change vs veh, ADK / RFU, RASSF2 / Fold change vs veh, RASSF2 / RFU, WIPF1 / Fold change vs veh, WIPF1 / RFU, LARP1B / Fold change vs veh, LARP1B / RFU, RASA1 / Fold change vs veh, RASA1 / RFU, RB1 / Fold change vs veh, RB1 / RFU, PPFIA1 / Fold change vs veh, PPFIA1 / RFU, MAT2A / Fold change vs veh, MAT2A / RFU, CCT5 / Fold change vs veh, CCT5 / RFU, WDR92 / Fold change vs veh, WDR92 / RFU, CUX1 / Fold change vs veh, CUX1 / RFU, TTC7A / Fold change vs veh, TTC7A / RFU, TMEM135 / Fold change vs veh, TMEM135 / RFU, DEPTOR / Fold change vs veh, DEPTOR / RFU, CPM / Fold change vs veh, CPM / RFU, DNAJB6 / Fold change vs veh, DNAJB6 / RFU, CACNA2D3 / Fold change vs veh, CACNA2D3 / RFU, DTX4 / Fold change vs veh, DTX4 / RFU, TFCP2 / Fold change vs veh, TFCP2 / RFU, GMCL1 /// GMCL1P1 / Fold change vs veh, GMCL1 /// GMCL1P1 / RFU, AEBP2 / Fold change vs veh, AEBP2 / RFU, SNHG1 /// SNORD22 /// SNORD25 /// SNORD26 /// SNORD27 /// SNORD28 /// SNORD29 /// SNORD31 / Fold change vs veh, SNHG1 /// SNORD22 /// SNORD25 /// SNORD26 /// SNORD27 /// SNORD28 /// SNORD29 /// SNORD31 / Fold change (Aza/veh), C12orf56 (ProbeSet 11735607_a_at) / Fold change (ACY-1035/veh), C12orf56 (ProbeSet 11735607_a_at) / Fold change (Aza/veh), FGFR1OP (ProbeSet 11751329_s_at) / Fold change (ACY-1035/veh), FGFR1OP (ProbeSet 11751329_s_at) / Fold change (Aza/veh), VPS36 (ProbeSet 11739960_a_at) / Fold change (ACY-1035/veh), VPS36 (ProbeSet 11739960_a_at) / RFU SYPL1 (11715823_x_at) / Fold change /veh SYPL1 (11715823_x_at) / RFU IGFBP7 (11715501_s_at) / Fold change /veh IGFBP7 (11715501_s_at) / RFU REEP3 (11722064_at) / Fold change /veh REEP3 (11722064_at) / RFU IGLL1 (11728026_x_at) / Fold change /veh IGLL1 (11728026_x_at): dose or concentration left out as unconfirmed
Conditions: MV-4-11 cells, 48 hours

Nc1ncn([C@@H]2O[C@H](CO)[C@@H](O)[C@H]2O)c(=O)n1 [azacitidine]
RFU OR2T12 /// OR2T33 /// OR2T8 (11738714_s_at): 6.40 RFU
